{"source": "patent US20040086942A1", "about": "“Ige receptor antagonists” (priority 2003, published 2004)", "note": "Where a SMILES comes first, the peptide text is derived from it. Bridges are numbered along the chain shown (N, C = ends). [ ]: non-standard residue; d: D form. 2Nal = N[C@@H](Cc1ccc2ccccc2c1)C(=O)O; Pip = O=C(O)[C@@H]1CCCCN1; NMeA = CN[C@@H](C)C(=O)O", "data": [{"system": "not listed separately", "assay": "2D NMR structural score versus reference peptide", "type": "physicochemical", "parameters": "key to Struct. Score: +++ indicates the peptide is structured similarly to IGE063 (SEQ ID NO:49); + indicates the peptide is structured similarly to IGE063 (SEQ ID NO:49), but is less stable; −/+ indicates the peptide has some elements of stable structure, but the conformation differs from the reference structure (e.g., a different turn type is evident); − indicates the peptide is predominantly unstructured in aqueous solution; key to Structure Score: +++, peptide structurally similar to reference; +, structurally similar to reference but significantly less stable; +/−, peptide has some elements of stable structure, but the conformation differs from the reference structure; −, peptide is predominantly unstructured; *peptide IGE037 (SEQ ID NO:128) was initially unstructured (monomeric form), but became structured after spontaneous dimer formation", "details": "reference IGE063", "experimental": "(§1) Peptides were evaluated by 2D NMR spectroscopy to assess the effect of substitutions on the three-dimensional structure of the peptide analog. All peptides with a structural score indicated in Table 5 were analyzed by 2D NMR spectroscopy; backbone ^1H resonances were assigned and ^3JHN-Hα coupling constants were measured and compared to the reference peptide (IGE063, SEQ ID NO:49; see Example 5). Peptides are defined to be of similar structure to the reference peptide provided chemical shifts, coupling constants, and NOEs are consistent with that structure.\n(§2) A structural score was assigned to peptides analyzed by 2D NMR spectroscopy. For each of these peptides, backbone ^1H resonances have been assigned, and the ^3JHN-Ha coupling constants have been measured and compared to the reference peptide (i.e., IGE134 (SEQ ID NOS:155, 171)). Peptides are defined to be of similar structure to the reference peptide provided. chemical shifts, coupling constants, and NOEs are consistent with that structure.", "values": [{"compound": "CSCC[C@H](NC(=O)[C@@H]1CSSC[C@H](NC(=O)[C@H](CCCNC(=N)N)NC(=O)[C@@H]2CCCN2C(=O)[C@H](CC(C)C)NC(=O)[C@H](CC(N)=O)NC(C)=O)C(=O)N[C@@H]([C@@H](C)O)C(=O)N[C@@H](CCC(=O)O)C(=O)NCC(=O)N2CCC[C@H]2C(=O)N[C@@H](C(C)C)C(=O)NCC(=O)N[C@@H](Cc2c[nH]c3ccccc23)C(=O)N[C@@H](C(C)C)C(=O)N1)C(=O)O", "note": "[IGE106, Ac-NLPRCTEGPVGWVCM] (Ac-NLPRCTEGPVGWVCM-OH; disulfide 5-14; C-terminus assumed)", "Struct. Score": "+++"}, {"compound": "CSCC[C@H](NC(=O)[C@@H]1CSSC[C@H](NC(=O)[C@H](CCCNC(=N)N)NC(=O)[C@@H]2CCCN2C(=O)[C@H](CC(C)C)NC(=O)[C@H](CC(N)=O)NC(C)=O)C(=O)N[C@@H]([C@@H](C)O)C(=O)N[C@@H](CCC(=O)O)C(=O)NCC(=O)N(C)[C@@H](C)C(=O)N[C@@H](Cc2c[nH]c3ccccc23)C(=O)NCC(=O)N[C@@H](Cc2c[nH]c3ccccc23)C(=O)N[C@@H](C(C)C)C(=O)N1)C(=O)O", "note": "[IGE096, Ac-NLPRCTEG(N-Me-A)WGWVCM] (Ac-NLPRCTEG[NMeA]WGWVCM-OH; disulfide 5-14; C-terminus assumed)", "Struct. Score": "+++"}, {"compound": "CSCC[C@H](NC(=O)[C@@H]1CSSC[C@H](NC(=O)[C@H](CCCNC(=N)N)NC(=O)[C@@H]2CCCN2C(=O)[C@H](CC(C)C)NC(=O)[C@@H](N)CC(N)=O)C(=O)N[C@@H]([C@@H](C)O)C(=O)N[C@@H](CCC(=O)O)C(=O)NCC(=O)N2CCC[C@@H]2C(=O)N[C@@H](Cc2c[nH]c3ccccc23)C(=O)NCC(=O)N[C@@H](Cc2c[nH]c3ccccc23)C(=O)N[C@@H](C(C)C)C(=O)N1)C(=O)O", "note": "[IGE071, NLPRCTEGpWGWVCM] (H-NLPRCTEG[dP]WGWVCM-OH; disulfide 5-14; N-terminus and C-terminus assumed)", "Struct. Score": "−/+"}, {"compound": "Ac-NLPRCTEG(hyP)WGWVCM [IGE101]", "Struct. Score": "+++"}, {"compound": "CSCC[C@H](NC(=O)[C@@H]1CSSC[C@H](NC(=O)[C@H](CCCNC(=N)N)NC(=O)[C@@H]2CCCN2C(=O)[C@H](CC(C)C)NC(=O)[C@@H](N)CC(N)=O)C(=O)N[C@@H]([C@@H](C)O)C(=O)N[C@@H](CCC(=O)O)C(=O)NCC(=O)N2CCC[C@H]2C(=O)N[C@@H](Cc2c[nH]c3ccccc23)C(=O)NCC(=O)N[C@@H](Cc2c[nH]c3ccccc23)C(=O)N[C@@H](Cc2ccc(O)cc2)C(=O)N1)C(=O)O", "note": "[IGE077, NLPRCTEGPWGWYCM] (H-NLPRCTEGPWGWYCM-OH; disulfide 5-14; N-terminus and C-terminus assumed)", "Struct. Score": "+++"}, {"compound": "CSCC[C@H](NC(=O)[C@H]1CSSC[C@H](NC(=O)[C@H](CCCNC(=N)N)NC(=O)[C@@H]2CCCN2C(=O)[C@H](CC(C)C)NC(=O)[C@H](CC(N)=O)NC(C)=O)C(=O)N[C@@H]([C@@H](C)O)C(=O)N[C@@H](CCC(=O)O)C(=O)NCC(=O)N2CCC[C@H]2C(=O)N[C@@H](Cc2c[nH]c3ccccc23)C(=O)NCC(=O)N[C@@H](Cc2c[nH]c3ccccc23)C(=O)N[C@@H](C(C)C)C(=O)N1)C(=O)O", "note": "[IGE104, Ac-NLPRCTEGPWGWVcM] (Ac-NLPRCTEGPWGWV[dC]M-OH; disulfide 5-14; C-terminus assumed)", "Struct. Score": "−"}, {"compound": "CSCC[C@H](NC(=O)[C@@H]1CSSC[C@H](NC(=O)[C@H](CCCNC(=N)N)NC(=O)[C@@H]2CCCN2C(=O)[C@H](CC(C)C)NC(=O)[C@H](CC(N)=O)NC(C)=O)C(=O)N[C@@H]([C@@H](C)O)C(=O)N[C@@H](CCC(=O)O)C(=O)NCC(=O)N2CCCC[C@H]2C(=O)N[C@@H](Cc2c[nH]c3ccccc23)C(=O)NCC(=O)N[C@@H](Cc2c[nH]c3ccccc23)C(=O)N[C@@H](C(C)C)C(=O)N1)C(=O)O", "note": "[IGE095, Ac-NLPRCTEG(Pip)WGWVCM] (Ac-NLPRCTEG[Pip]WGWVCM-OH; disulfide 5-14; C-terminus assumed)", "Struct. Score": "+++"}, {"compound": "CSCC[C@H](NC(=O)[C@@H]1CSSC[C@H](NC(=O)[C@H](CCCNC(=N)N)NC(=O)[C@@H]2CCCN2C(=O)[C@H](CC(C)C)NC(=O)[C@H](CC(N)=O)NC(C)=O)C(=O)N[C@@H]([C@@H](C)O)C(=O)N[C@@H](CCC(=O)O)C(=O)NCC(=O)N2CCC[C@H]2C(=O)N[C@@H](CCCCN)C(=O)NCC(=O)N[C@@H](Cc2c[nH]c3ccccc23)C(=O)N[C@@H](C(C)C)C(=O)N1)C(=O)N[C@@H](C)C(=O)N[C@@H](CC(=O)O)C(=O)N[C@@H](CC(=O)O)C(N)=O", "note": "[IGE032, Ac-NLPRCTEGPKGWVCMADD-nh2] (Ac-NLPRCTEGPKGWVCMADD-NH2; disulfide 5-14)", "Struct. Score": "+++"}, {"compound": "Ac-NLPRCTEGPWGWVCM [IGE108]", "Struct. Score": "+"}, {"compound": "CSCC[C@H](NC(=O)[C@@H]1CSSC[C@H](NC(=O)[C@H](CCCNC(=N)N)NC(=O)[C@@H]2CCCN2C(=O)[C@H](CC(C)C)NC(=O)[C@H](CC(N)=O)NC(C)=O)C(=O)N[C@@H]([C@@H](C)O)C(=O)N[C@@H](CCC(=O)O)C(=O)NCC(=O)N2CCC[C@H]2C(=O)N[C@@H](Cc2ccc3ccccc3c2)C(=O)NCC(=O)N[C@@H](Cc2c[nH]c3ccccc23)C(=O)N[C@@H](C(C)C)C(=O)N1)C(=O)O", "note": "[IGE103, Ac-NLPRCTEGP(npA)GWVCM] (Ac-NLPRCTEGP[2Nal]GWVCM-OH; disulfide 5-14; C-terminus assumed)", "Struct. Score": "+++"}]}, {"system": "not listed separately", "assay": "2D NMR structural score versus reference peptide", "type": "physicochemical", "parameters": "key to Struct. Score: +++ indicates the peptide is structured similarly to IGE063 (SEQ ID NO:49); + indicates the peptide is structured similarly to IGE063 (SEQ ID NO:49), but is less stable; −/+ indicates the peptide has some elements of stable structure, but the conformation differs from the reference structure (e.g., a different turn type is evident); − indicates the peptide is predominantly unstructured in aqueous solution; key to Structure Score: +++, peptide structurally similar to reference; +, structurally similar to reference but significantly less stable; +/−, peptide has some elements of stable structure, but the conformation differs from the reference structure; −, peptide is predominantly unstructured; *peptide IGE037 (SEQ ID NO:128) was initially unstructured (monomeric form), but became structured after spontaneous dimer formation", "details": "reference IGE134", "experimental": "as §1, §2", "values": [{"compound": "CC(C)C[C@@H]1NC(=O)[C@H](C)NC(=O)[C@H](Cc2c[nH]cn2)NC(=O)CNC(=O)CNC(=O)[C@H](C(C)C)NC(=O)[C@H](Cc2ccc(O)cc2)NC(=O)[C@@H]2CSSC[C@H](NC1=O)C(=O)N1CCC[C@H]1C(=O)N[C@@H](CC(=O)O)C(=O)N[C@@H](C(C)C)C(=O)N[C@H](C(=O)N[C@@H](Cc1ccc(O)cc1)C(=O)N[C@H](C(=O)NCC(=O)N[C@@H](CCCNC(=N)N)C(=O)O)C(C)C)CSSC[C@H](NC(=O)[C@H](CCC(N)=O)NC(=O)[C@@H](N)C(C)C)C(=O)N1CCC[C@H]1C(=O)N[C@@H](Cc1c[nH]cn1)C(=O)N[C@@H](Cc1ccccc1)C(=O)N2", "note": "[IGE132] (H-VQCPHFCYVGGHALCPDVCYVGR-OH; disulfide 3-19, 7-15)", "Structure Score": "+++"}, {"compound": "CC(C)C[C@@H]1NC(=O)[C@H](C)NC(=O)[C@H](Cc2c[nH]cn2)NC(=O)CNC(=O)CNC(=O)[C@H](C(C)C)NC(=O)[C@H](Cc2ccc(O)cc2)NC(=O)[C@@H]2CSSC[C@H](NC1=O)C(=O)N[C@@H](C)C(=O)N[C@@H](CC(=O)O)C(=O)N[C@@H](C(C)C)C(=O)N[C@H](C(=O)N[C@@H](Cc1ccc(O)cc1)C(=O)N[C@H](C(=O)NCC(=O)N[C@@H](CCCNC(=N)N)C(=O)O)C(C)C)CSSC[C@H](NC(=O)[C@H](CCC(N)=O)NC(=O)[C@@H](N)C(C)C)C(=O)N1CCC[C@H]1C(=O)N[C@@H](Cc1c[nH]cn1)C(=O)N[C@@H](Cc1ccccc1)C(=O)N2", "note": "[IGE143] (H-VQCPHFCYVGGHALCADVCYVGR-OH; disulfide 3-19, 7-15 (inferred))", "Structure Score": "+++"}]}, {"molecular_target": "T1, alpha subunit of the human FcεRI receptor (Homo sapiens, UniProt P12319)", "T1 construct": "expressed in transfected cells; host or cells: Chinese hamster ovary (CHO FcεRI+) cells", "T1 sequence (P12319 26-257)": "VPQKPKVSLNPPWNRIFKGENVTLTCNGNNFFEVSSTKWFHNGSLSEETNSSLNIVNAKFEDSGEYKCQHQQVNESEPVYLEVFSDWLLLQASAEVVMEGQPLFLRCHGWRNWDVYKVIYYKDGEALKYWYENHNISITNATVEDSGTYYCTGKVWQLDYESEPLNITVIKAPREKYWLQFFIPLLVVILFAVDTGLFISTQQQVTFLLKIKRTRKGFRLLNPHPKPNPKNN", "assay": "cell-based 125I-IgE binding inhibition assay on CHO FcεRI+ cells", "details": "inhibition of labeled IgE-binding to CHO FcεRI+ cells; read-out: Mean IC50(uM) ± S.D.", "experimental": ". The following day the cells were rinsed three times with PBS and then once with F12/DMEM. Peptide stocks were reconstituted in 100 mM Hepes buffered water, pH 7.2, at a concentration of 5 mg/mL. Working concentrations of the peptide were diluted in assay buffer (see below). 75 ul, of a desired concentration of peptide was added to the top row of a separate 96 well microtiter plate and serially diluted 1:3 in 50 uL of the assay buffer (F12/DMEM, 1% BSA, 0.05% NaN3 and […] Hepes pH 7.2). Starting concentrations ranged from 50-500 uM. Next, 50 uL of the diluted peptide was transferred to the 96 microtiter well plate containing a monolayer of CHO FcεRI+ cells. After a 1 hour incubation at room temperature, 50 uL of ^125I-IgE (1.5 nM) was added to each well and incubated for an additional 45-60 minutes at 4° C. followed by 5 washes with 200 uL of assay buffer. Cells were solubilized with 200 uL of 1 N NaOH and transferred to a 96 microtiter tube for counting in a gamma counter to determine counts bound. The data were plotted using KaleidaGraph 3.0 and fitted using 4-parameter fits. IC50 values were determined for each peptide.\nSix peptides based on selected clones from library #516 were synthesized and assayed for the ability to inhibit the binding of ^125I-IgE to a Chinese hamster ovary cell line expressing the alpha subunit of the IgE high affinity receptor, FcεRI. The peptides were synthesized as nine residue monomers and oxidized to allow the formation of a disulfide bridge resulting in a cyclic peptide. The size of each peptide was confirmed by mass spectrometry.", "units": {"IC50": "µM"}, "values": [{"compound": "CC[C@H](C)[C@H](NC(=O)[C@@H]1CSSC[C@H](N)C(=O)N[C@@H]([C@@H](C)O)C(=O)N[C@@H](CCC(=O)O)C(=O)NCC(=O)N2CCC[C@H]2C(=O)N[C@@H](Cc2c[nH]c3ccccc23)C(=O)NCC(=O)N[C@@H](Cc2c[nH]c3ccccc23)C(=O)N[C@@H](C(C)C)C(=O)N1)C(N)=O", "note": "[IGE055, CTEGPWGWVCI-nh2] (H-CTEGPWGWVCI-NH2; disulfide 1-10)", "IC50": "> 500"}]}]}
